Test [1] has as its system HLA-A*24:02 transgenic mouse. Kind of test: In vivo adjuvant activity, CTL induction with vaccine f, IFNγ ELISPOT (Test 19). As to conditions: 0.4 nmol per body added to vaccine f versus no compound; twice. Here is the method: The in vivo adjuvant activity of the compound of Example 2 was evaluated in the following procedure. To a vaccine prepared by mixing Peptide SEQ ID No. 5 prepared in Reference example 19 with a preliminarily-emulsified composition (hereinafter, referred to as “vaccine f”) was added the compound prepared in Example 2 to prepare a vaccine. The vaccine was administered to a HLA-A*24:02 transgenic mouse, and the adjuvant activity of the vaccine was evaluated by the method of testing antigen-specific CTL induction. The CYTWNQMNL (SEQ ID No. 2) in Peptide SEQ ID No. 5 corresponds to an antigen peptide derived from an HLA-A*24:02-restricted WT1 protein.
The character for inducing CTLs specific to the antigen peptide (SEQ ID No. 2) by vaccine f was evaluated by measuring whether IFNγ can be produced upon stimulation of splenocytes from the mouse with the peptide. In addition, the character for exerting in vivo adjuvant activity by the compound in Example 2 was evaluated by comparing the number of CTLs induced by vaccine f and the number of CTLs induced by the vaccine prepared by adding the compound prepared in Example 2 to vaccine f, and checking presence or absence of the increase on the number.
Specifically, Peptide of SEQ ID No. 5 was dissolved in DMSO, and then diluted with water for injection to concentrations of 3 mg/mL. […]

Test [2] relates to Antigen-Specific CTL. Kind of test: Action of anti-PD-1 antibody in immune response of antigen-specific CTL for peptide and tumor cell (Test 13). The test is classed as in vivo, mouse. As to conditions: splenocyte of mice receiving vaccine b with Example 2 (325 ng per body, twice); antibody 37.5 μg/mL; culture with tumor cells and Peptide SEQ ID No. 1 about three days. Here is the method: Vaccine b prepared like Test 8 was injected to a HLA-A*02:01 transgenic mouse intradermally at the tail base area in an amount for administering 300 μg of Compound of formula 4 per body and 225 μg of Peptide SEQ ID No. 3 per body. Or, a vaccine prepared by adding the compound prepared in Example 2 to vaccine b was injected to a HLA-A*02:01 transgenic mouse intradermally at the tail base area in an amount for administering 300 μg of Compound of formula 4 per body, 225 μg of Peptide SEQ ID No. 3 per body, and 325 ng of the compound prepared in Example 2 per body. The administrations were done twice, which had one week interval. One week after the final administration, the mice were sacrificed with CO2 gas, and then spleens removed from the mice. A splenocyte suspension was prepared from the spleens with CTM. And, like Test 11, Peptide SEQ ID No. 1 was pulsed to a part of the splenocyte, and the cell was mixed with LLC-HHD-WT1 tumor cell. To the mixed cells was added an isotype control antibody (Rat IgG2ax, BD Pharmingen) or anti-PD-1 antibody (clone 29F.1A12, Biolegend) at a final concentration of 37.5 μg/mL, and the mixture was cultured at 37° C. under an atmosphere of 5% CO2 for about three days. The concentration of mouse IFN-γ in the culture supernatant was measured with an ELISA kit.

For test [3], the system named is HLA-A*02:01 transgenic mouse. Kind of test: In vivo adjuvant activity, CTL induction with vaccine c, IFNγ ELISPOT (Test 9). Conditions: 32.5 ng per body added to vaccine c versus no compound; twice, one week interval. As to the method: The in vivo adjuvant activity of the compounds prepared in Example 3 was evaluated in the following procedure. To a vaccine comprising Peptide SEQ ID No. 1 prepared in Reference example 1 with a preliminarily-emulsified composition (hereinafter, referred to as “vaccine c”) was added the compound prepared in Example 3 to prepare a vaccine. The vaccine was administered to a HLA-A*02:01 transgenic mouse, and the adjuvant activity of the vaccine was evaluated by the method of testing antigen-specific CTL induction.
Specifically, Peptide SEQ ID No. 1 was dissolved in DMSO, and then diluted with water for injection to concentrations of Peptide SEQ ID No. 1 of 2 mg/mL. The diluted peptide solution was mixed and emulsified with an equal volume of a preliminarily-emulsified composition to prepare vaccine c. Vaccine c was injected to mice intradermally at the tail base area in an amount for administering 200 μg of Peptide SEQ ID No. 1 per body. Or, in the step of preparing vaccine c, the compound prepared in Example 3 was added to the diluted peptide solution to prepare a vaccine, and the prepared vaccine was injected to mice intradermally at the tail base area in an amount for administering 200 μg of Peptide SEQ ID No. 1 per body, and 32.5 ng of the compound prepared in Example 3 per body. […] Then, after removal of the supernatant from the wells, stained spots on the ELISPOT plate were counted.

Molecules are shown by their SMILES.

These results are taken from patent publication US20220241409A1, “WATER SOLUBLE ADJUVANT AND COMPOSITION CONTAINING SAME” (Sumitomo Dainippon Pharma Co., Ltd., priority 2019, published 2022).

Consider `CCCCOc1nc(N)c2[nH]c(=O)n(Cc3ccc(CN(C)CCOCCOCCOCCOCCO)nc3)c2n1` [Example 2, 6-amino-2-butoxy-9-{[6-(16-hydroxy-2-methyl-5,8,11,14-tetraoxa-2-azahexadecan-1-yl)pyridin-3-yl]methyl}-7,9-dihydro-8H-purin-8-one-trifluoroacetate], for which the “CTL counts responsive to Peptide of SEQ ID No. 2” value in test [1] is listed as “more”. The “amount of IFN-γ produced from the CTL with anti-PD-1 antibody relative to isotype control antibody” value in test [2] was determined as 4 times. Turning to `CCCCOc1nc(N)c2[nH]c(=O)n(Cc3ccc(CN(C)CCOCCOCCOCCOCCO)cc3)c2n1` [Example 3, 6-amino-2-butoxy-9-{[4-(16-hydroxy-2-methyl-5,8,11,14-tetraoxa-2-azahexadecan-1-yl)phenyl]methyl}-7,9-dihydro-8H-purin-8-one], the “CTL counts responsive to Peptide of SEQ ID No. 1” value in test [3] was “more”.
